Laboratory results from patent US3991057A, “C-Piperazino-pyridine sulfonamides” (A. Christiaens Societe Anonyme, priority 1970, dated 1976).
Where a name gives a salt, the structure may show the parent alone. Read-outs that look alike come from different tables or passages of the source.

What was measured:
[1] = test system: carrageenan-induced paw oedema; assay: Acute oedema induced by carrageenan (anti-inflammatory test, rat paw swelling by plethysmography); assay type: in vivo; settings: for inhibition in vivo at 100 mg/kg: Rattus norvegicus, read-out: Acute oedema induced by carrageenan, % of inhibition
Procedure: The anti-inflammatory properties are determined as follows:
The compounds to be tested are given as freshly prepared solutions or suspensions by oral route one hour before injecting the paw with carrageenan, a known inflammatory agent.
The inflammatory agent either in aqueous solution or suspension is then injected into the plantar tissue of the right hind paw of each rat, the left paw remaining untreated and serving as control. Each animal receives for example 0.05 ml of an aqueous solution containing 1 % of carrageenan and 0.9 % of sodium chloride.
4 hours after injection, the importance of swelling is determined by plethysmography and is expressed as a percent of the volume of the control paw.
The anti-inflammatory effect expressed as a percent of inhibition is obtained by comparison between rats treated with the anti-inflammatory agent and a control group of rats.
100 mg/kg of anti-inflammatory agent are administered by oral route.

[2] = test system: test animal (left carotid and femoral artery flow, ventricular and aortic pressure); assay: Cardiovascular properties (flow rates of carotid and femoral artery, ventricular and aortic pressures) in the test animal; assay type: in vivo; set-up: ventricular and aortic pressures after moderate lowering: unit not given here; settings: for ventricular and aortic pressures after sharp fall: from 130 mm of Hg
Procedure: Some compounds of this invention also have interesting cardiovascular properties so that they may be used as cerebral, coronary and peripheral vasodilators and hypotension-inducing agents, whereby the hypotension activity may occur primarily or secondarily with respect to the peripheral vasodilatation.
These cardiovascular properties have been found as follows:
After administration of the compound at the hereafter-indicated doses, the following parameters are measured on the test animal: the electrocardiogram, the left ventricular pressure, the amplified telediastolic pressure, the derivative of the ventricular pressure with respect to time (dp/dt), the aortic pressure, the average and pulsatile blood flow of the left carotid and femoral artery.

[3] = 100 mg/kg oral, one hour before carrageenan, 4 hours after injection

## CCNS(=O)(=O)c1cccnc1N1CCN(C)CC1 [Example 4, 2-(4'-methyl-1'-piperazinyl)-pyridine-3-ethylsulfonamide]
[1]; [3]
  inhibition in vivo at 100 mg/kg: 50%

## CN1CCN(c2ccncc2S(N)(=O)=O)CC1 [Example 28, 4-(4'-methyl-1'-piperazinyl)-pyridine-3-sulfonamide]
[2]; 2 mg/kg
  duration of activity on / increase of the carotid and femoral flow rates: more than 5 min
  time to return of ventricular and aortic pressures to the starting values / reversal of lowering: ≤ 2 min
[2]; 2 mg/kg, from 160 mm of Hg
  ventricular and aortic pressures after moderate lowering: 100
[2]; 2 mg/kg, maximum
  increase of the femoral flow rate: 100%
[2]; 2 mg/kg, maximum where stated
  increase of the carotid flow rate: 150%
[2]; 4 mg/kg
  phenomena (flow rates and pressures) compared with 2 mg/kg: The same phenomena occur
  time to return of pressures to the starting values: 40 min
[2]; 4 mg/kg, from 160 mm of Hg
  ventricular and aortic pressures after lowering: 70 mm of Hg
[2]; 8 mg/kg
  phenomena (flow rates and pressures) compared with 4 mg/kg: identical phenomena are observed
  time to return of pressures to their starting value: 50 min

## CN1CCN(CCNS(=O)(=O)c2cnccc2N2CCN(C)CC2)CC1 [Example 38, 4-(4'-methyl-1'-piperazinyl)-pyridine-3-(4"-methyl-1"-piperazinyl)-ethylsulfonamide]
[2]; 2 mg/kg
  activity on the carotid and femoral flow rates: slight and breaf
  duration of activity on / increase of the carotid and femoral flow rates: 5 min
[2]; 4 mg/kg and 8 mg/kg
  duration of action on the carotid and femoral flow rates: 10 min
  increase of the average flow rates (carotid and femoral): 100%
[1]; [3]
  Acute oedema induced by carrageenan, % of inhibition: 60.8%

## CCOCCNS(=O)(=O)c1cnccc1N1CCN(C)CC1 [Example 40, 4-(4'-methyl-1'-piperazinyl)-pyridine-3-ethoxyethylsulfonamide]
[2]; 2 mg/kg
  duration of activity on / increase of the carotid and femoral flow rates: less than 5 min
  variation of the cardiac and peripheral pressures: without variation
[2]; 2 mg/kg, maximum
  increase of the femoral flow rate: 50%
[2]; 2 mg/kg, maximum where stated
  increase of the carotid flow rate: 300%
[2]; 4 mg/kg
  duration of hypotension / fall of pressure: 3 min
  increase of the carotid flow rate: moderate increase of the carotid flow rate remains after return of the pressure rates to normal conditions
  return of blood pressure to the starting values: quick return to the starting values
[2]; 4 mg/kg, from 150 mm of Hg
  blood pressure after moderate fall: 90 mm of Hg
[1]; [3]
  inhibition in vivo at 100 mg/kg: 60%

## CCN(CC)S(=O)(=O)c1cccnc1N1CCN(C)CC1 [Example 5, 2-(4'-methyl-1'-piperazinyl)-pyridine-3-diethylsulfonamide dihydrochloride]
[1]; [3]
  inhibition in vivo at 100 mg/kg: 44%

## CC(C)NS(=O)(=O)c1cnccc1N1CCN(C)CC1 [Example 33, 4-(4'-methyl-1'-piperazinyl)-pyridine-3-isopropylsulfonamide]
[2]; 2 mg/kg
  duration of increase of the average carotid flow rate: 5 min
  increase of the average carotid flow rate: slight increase
[2]; 4 mg/kg
  time the carotid flow rate remains high compared to control values: 10 min
  time to increase of the carotid flow rate: within two minutes
[2]; 4 mg/kg, after injection
  time to fall of femoral flow rate to the starting values: ≤ 2 min
[2]; 4 mg/kg, maximum where stated
  increase of the carotid flow rate: 300%
  increase of the femoral flow rate: 200%

## CCCCC1C(=O)N(c2ccccc2)N(c2ccccc2)C1=O [Phenylbutazone, reference compound]
[1]; [3]
  inhibition in vivo at 100 mg/kg: 41%

## CN(C)C=NS(=O)(=O)c1cnccc1N1CCN(C)CC1 [Example 48, 4-(4'-methyl-1'-piperazinyl)-pyridine-3-dimethylaminomethinesulfonamide]
[2]; 2 mg/kg
  duration of activity on / increase of the carotid and femoral flow rates: 5 min
  increase of the carotid and femoral flow rates: 100%
[2]; 4 mg/kg
  duration of increase of the carotid and femoral flow rates: 10 min
  fall of the ventricular and aortic pressures: temporary and moderate fall
[2]; 4 mg/kg, compared with 2 mg/kg
  increase of the carotid and femoral flow rates: stronger and longer
[2]; 8 mg/kg
  phenomena (flow rates and pressures) compared with 4 mg/kg: Identical phenomena are observed

## O=C(O)c1cccnc1Nc1cccc(C(F)(F)F)c1 [Niflumic acid, reference compound]
[1]; [3]
  inhibition in vivo at 100 mg/kg: 32%

## CCNS(=O)(=O)c1ccc(N2CCN(C)CC2)nc1 [Example 11, 2-(4'-methyl-1'-piperazinyl)-pyridine-5-ethylsulfonamide]
[1]; [3]
  inhibition in vivo at 100 mg/kg: 42.4%

## CNC(=O)c1cccnc1N1CCN(C)CC1 [Example 19, 2-(4'-methyl-1'-piperazinyl)-pyridine-3-methylcarboxamide]
[1]; [3]
  inhibition in vivo at 100 mg/kg: 51.2%

## CC(C)NC(=O)c1cccnc1N1CCN(C)CC1 [Example 22, 2-(4'-methyl-1'-piperazinyl)-pyridine-3-isopropylcarboxamide]
[1]; [3]
  inhibition in vivo at 100 mg/kg: 40%

## CNS(=O)(=O)c1cnccc1N1CCN(C)CC1 [Example 29, 4-(4'-methyl-1'-piperazinyl)-pyridine-3-methylsulfonamide]
[2]; 2 mg/kg
  duration of increase of the femoral flow rate: less than 5 min
[2]; 2 mg/kg, maximum
  increase of the femoral flow rate: 80%
[2]; 4 mg/kg
  duration of increase of the carotid and femoral flow rates: 10 min
  modification of the pressures: slight reflex modification of the pressures
[2]; 4 mg/kg, maximum where stated
  increase of the carotid flow rate: 120%
  increase of the femoral flow rate: 80%
[2]; 10 mg/kg
  increase of the carotid flow rate: 300%
  phenomena (flow rates and pressures) compared with 4 mg/kg: identical phenomena occur which are however stronger and of longer duration

## CC(=O)Oc1ccccc1C(=O)O [Acetosalicylic acid, reference compound]
[1]; po, 4 h
  inhibition in vivo at 100 mg/kg: 0%

## CN1c2ccccc2Sc2ccc(CC(=O)O)cc21 [Methiazinic acid, reference compound]
[1]; [3]
  inhibition in vivo at 100 mg/kg: 46%

## COCCNS(=O)(=O)c1cnccc1N1CCN(C)CC1 [Example 39, 4-(4'-methyl-1'-piperazinyl)-pyridine-3-methyoxyethylsulfonamide]
[2]; 2 mg/kg
  time to return of ventricular and aortic pressures to the starting values / reversal of lowering: less than 3 min
  ventricular and aortic pressures after sharp fall: 90 mm of Hg
[2]; 2 mg/kg, maximum where stated
  increase of the carotid flow rate: 75%
[2]; 4 mg/kg
  duration of hypotension / fall of pressure: 2 min
  increase of the peripheral flow rates: 50%
  time to return of pressures to the starting values: 30 min
  ventricular and aortic pressures after sharp fall: 40 mm of Hg
[1]; [3]
  inhibition in vivo at 100 mg/kg: 55.2%

## CN1CCN(c2ncccc2C#N)CC1 [Example 14, 2-(4'-methyl-1'-piperazinyl)-3-cyanopyridine hydrochloride]
[1]; [3]
  inhibition in vivo at 100 mg/kg: 63.2%

## CN1CCN(c2ccc(C#N)cn2)CC1 [Example 23, 2-(4'-methyl-1'-piperazinyl)-5-cyanopyridine]
[1]; [3]
  inhibition in vivo at 100 mg/kg: 48.8%

## O=C(O)c1ccccc1Nc1cccc(C(F)(F)F)c1 [Flufenamic acid, reference compound]
[1]; [3]
  inhibition in vivo at 100 mg/kg: 34%

## CCNC(=O)c1cccnc1N1CCN(C)CC1 [Example 21, 2-(4'-methyl-1'-piperazinyl)-pyridine-3-ethylcarboxamide]
[1]; [3]
  inhibition in vivo at 100 mg/kg: 44.4%

## CN1CCN(c2ccc(C(=O)N(C)C)cn2)CC1 [Example 25, 2-(4'-methyl-1'-piperazinyl)-5-dimethylcarboxamide]
[1]; [3]
  inhibition in vivo at 100 mg/kg: 28.8%

## CC(C)NC(=O)c1ccc(N2CCN(C)CC2)nc1 [Example 27, 2-(4'-methyl-1'-piperazinyl)-5-isopropylcarboxamide]
[1]; [3]
  inhibition in vivo at 100 mg/kg: 32%

## CCN(CC)S(=O)(=O)c1cnccc1N1CCN(C)CC1 [Example 32, 4-(4'-methyl-1'-piperazinyl)-pyridine-3-diethylsulfonamide]
[2]; 2 mg/kg
  time to fall of cardiac and peripheral pressures: ≤ 45 s
[2]; 2 mg/kg, after 5 minutes
  cardiac and peripheral pressures on recovery: 135 mm of Hg
[2]; 2 mg/kg, from 150 mm of Hg
  cardiac and peripheral pressures after fall: 75 mm of Hg
[2]; 2 mg/kg, maximum where stated
  increase of the carotid flow rate: 60%
[2]; 4 mg/kg
  duration of hypotension / fall of pressure: more than 20 min
  time to return of pressures to the starting values: > 70 min
[2]; 4 mg/kg, after 70 minutes
  pressure on return to the starting values: 130 mm of Hg
[2]; 4 mg/kg, from 135 mm of Hg
  pressure in moderate hypotension: 75 mm of Hg
[1]; [3]
  inhibition in vivo at 100 mg/kg: 44.8%
